Patent US10022374B2, “Certain protein kinase inhibitors” (Shanghai Fochon Pharmaceutical Co., Ltd., priority 2013, dated 2018)
Like-named read-outs stand apart in the source and are kept apart here.

Experiments:
HT-29 cells = assay: Inhibition of cell proliferation (MTS), HT-29 cells; assay type: cell-based; conditions: HT-29 cells, 5000 cells/well, 72 h, MTS, absorbance 490 nm, read-out: HT29 IC50
Experimental: (§1) MTS testing kit was purchased from Promega. The DMEM, RPMI-1640 and Fetal bovine serum were purchased from Gibco. Dimethyl sulfoxide (DMSO) was purchased from Sigma.
(§2) To investigate whether a compound is able to inhibit the activity of MEK in cells, a mechanism-based assay using A-375 and HT-29 cell was developed. In this assay, inhibition of MEK was detected by the inhibition of A-375 and HT-29 cells proliferation. A-375 and HT-29 cells were cultured in culture flasks to 40-80% confluence respectively in DMEM and RPMI-1640 plus 10% fetal bovine serum. Cells were collected and plated onto 96-well plates at desired cell density (A-375: 3000 cells/well; HT-29: 5000 cells/well). Plates were incubated overnight at 37° C., with 5% CO2 to adhere. Compounds were added to the plates. The final compound concentrations were […], 12.35, 4.12, 1.37, 0.46 and 0.15 nM, respectively. Place plates at 37° C., with 5% CO2 for 72 h. 10 μl MTS were added to each well and incubate the plates for exactly 2 hours. Absorbance was measured at 490 nm. […] was calculated using GraphPad Prism 5.0.

A-375 cells = assay: Inhibition of cell proliferation (MTS), A-375 cells; assay type: cell-based; conditions: A-375 cells, 3000 cells/well, 72 h, MTS, absorbance 490 nm, read-out: A375 IC50
Experimental: as §1, §2

Row | IC50 (HT-29 cells; Homo sapiens, HT-29, 72 h) [nM] | IC50 (A-375 cells; Homo sapiens, A-375, 72 h) [nM] | IC50 (HT-29 cells) [nM] | IC50 (A-375 cells) [nM] | SMILES
1 | 21.6 | 12.8 |  |  | CCCn1nc(-c2cccc(NS(=O)(=O)C3CC3)c2)c2c(c(Nc3ccc(I)cc3F)c(F)c(=O)n2C)c1=O [Example 17, N-(3-(3-fluoro-4-(2-fluoro-4-iodophenylamino)-1-methyl-2,5-dioxo-6-propyl-1,2,5,6-tetrahydropyrido[2,3-d]pyridazin-8-yl)phenyl)cyclopropanesulfonamide]
2 | 23.6 | 30.2 |  |  | COCCn1nc(-c2cccc(NS(=O)(=O)C3CC3)c2)c2c(c(Nc3ccc(I)cc3F)c(F)c(=O)n2C)c1=O [Example 18, N-(3-(3-fluoro-4-(2-fluoro-4-iodophenylamino)-6-(2-methoxyethyl)-1-methyl-2,5-dioxo-1,2,5,6-tetrahydropyrido[2,3-d]pyridazin-8-yl)phenyl)cyclopropanesulfonamide]
3 | < 1 | < 1 |  |  | Cn1nc(-c2cccc(NS(C)(=O)=O)c2)c2c(c(Nc3ccc(I)cc3F)c(F)c(=O)n2C)c1=O [Example 22, N-(3-(3-fluoro-4-(2-fluoro-4-iodophenylamino)-1,6-dimethyl-2,5-dioxo-1,2,5,6-tetrahydropyrido[2,3-d]pyridazin-8-yl)phenyl)methanesulfonamide]
4 | 6.1 | 13.7 |  |  | CCn1nc(-c2cccc(NC(C)=O)c2)c2c(c(Nc3ccc(I)cc3F)c(F)c(=O)n2C)c1=O [Example 24, N-(3-(6-ethyl-3-fluoro-4-(2-fluoro-4-iodophenylamino)-1-methyl-2,5-dioxo-1,2,5,6-tetrahydropyrido[2,3-d]pyridazin-8-yl)phenyl)acetamide]
5 | < 1 | < 1 |  |  | CCn1nc(-c2cccc(NS(C)(=O)=O)c2)c2c(c(Nc3ccc(I)cc3F)c(F)c(=O)n2C)c1=O [Example 25, N-(3-(6-ethyl-3-fluoro-4-(2-fluoro-4-iodophenylamino)-1-methyl-2,5-dioxo-1,2,5,6-tetrahydropyrido[2,3-d]pyridazin-8-yl)phenyl)methanesulfonamide]
6 | 7.4 | 1.1 |  |  | C=CCn1nc(-c2cccc(NS(C)(=O)=O)c2)c2c(c(Nc3ccc(I)cc3F)c(F)c(=O)n2C)c1=O [Example 31, N-(3-(6-allyl-3-fluoro-4-(2-fluoro-4-iodophenylamino)-1-methyl-2,5-dioxo-1,2,5,6-tetrahydropyrido[2,3-d]pyridazin-8-yl)phenyl)methanesulfonamide]
7 | 7.2 | 12.6 |  |  | C=CCn1nc(-c2cccc(NS(=O)(=O)C(C)C)c2)c2c(c(Nc3ccc(I)cc3F)c(F)c(=O)n2C)c1=O [Example 33, N-(3-(6-allyl-3-fluoro-4-(2-fluoro-4-iodophenylamino)-1-methyl-2,5-dioxo-1,2,5,6-tetrahydropyrido[2,3-d]pyridazin-8-yl)phenyl)propane-2-sulfonamide]
8 | 22.6 | 26.3 |  |  | C=CCn1nc(-c2cccc(NC(=O)C(C)C)c2)c2c(c(Nc3ccc(I)cc3F)c(F)c(=O)n2C)c1=O [Example 35, N-(3-(6-allyl-3-fluoro-4-(2-fluoro-4-iodophenylamino)-1-methyl-2,5-dioxo-1,2,5,6-tetrahydropyrido[2,3-d]pyridazin-8-yl)phenyl)isobutyramide]

Continued, compound first:

Row | SMILES | IC50 (HT-29 cells; Homo sapiens, HT-29, 72 h) [nM] | IC50 (A-375 cells; Homo sapiens, A-375, 72 h) [nM] | IC50 (HT-29 cells) [nM] | IC50 (A-375 cells) [nM]
9 | Cn1c(=O)c(F)c(Nc2ccc(I)cc2F)c2c(=O)n(CCF)nc(-c3cccc(NS(=O)(=O)C4CC4)c3)c21 [Example 19, N-(3-(3-fluoro-4-(2-fluoro-4-iodophenylamino)-6-(2-fluoroethyl)-1-methyl-2,5-dioxo-1,2,5,6-tetrahydropyrido[2,3-d]pyridazin-8-yl)phenyl)cyclopropanesulfonamide] | 4.2 | 2.4 |  | 
10 | Cn1c(=O)c(F)c(Nc2ccc(I)cc2F)c2c(=O)n(CC(F)F)nc(-c3cccc(NS(=O)(=O)C4CC4)c3)c21 [Example 20, N-(3-(6-(2,2-difluoroethyl)-3-fluoro-4-(2-fluoro-4-iodophenylamino)-1-methyl-2,5-dioxo-1,2,5,6-tetrahydropyrido[2,3-d]pyridazin-8-yl)phenyl)cyclopropanesulfonamide] | 7.7 | 6.4 |  | 
11 | CC(=O)Nc1cccc(-c2nn(C)c(=O)c3c(Nc4ccc(I)cc4F)c(F)c(=O)n(C)c23)c1 [Example 21, N-(3-(3-fluoro-4-(2-fluoro-4-iodophenylamino)-1,6-dimethyl-2,5-dioxo-1,2,5,6-tetrahydropyrido[2,3-d]pyridazin-8-yl)phenyl)acetamide] | < 1 | 3.9 |  | 
12 | Cn1nc(-c2cccc(NS(=O)(=O)C3CC3)c2)c2c(c(Nc3ccc(I)cc3F)c(F)c(=O)n2C)c1=O [Example 23, N-(3-(3-fluoro-4-(2-fluoro-4-iodophenylamino)-1,6-dimethyl-2,5-dioxo-1,2,5,6-tetrahydropyrido[2,3-d]pyridazin-8-yl)phenyl)cyclopropanesulfonamide] | < 1 | < 1 |  | 
13 | CCn1nc(-c2cccc(NS(=O)(=O)C(C)C)c2)c2c(c(Nc3ccc(I)cc3F)c(F)c(=O)n2C)c1=O [Example 26, N-(3-(6-ethyl-3-fluoro-4-(2-fluoro-4-iodophenylamino)-1-methyl-2,5-dioxo-1,2,5,6-tetrahydropyrido[2,3-d]pyridazin-8-yl)phenyl)propane-2-sulfonamide] | < 1 | 11.9 |  | 
14 | CCn1nc(-c2cccc(NS(=O)(=O)C3CC3)c2)c2c(c(Nc3ccc(I)cc3F)c(F)c(=O)n2C)c1=O [Example 27, N-(3-(6-ethyl-3-fluoro-4-(2-fluoro-4-iodophenylamino)-1-methyl-2,5-dioxo-1,2,5,6-tetrahydropyrido[2,3-d]pyridazin-8-yl)phenyl)cyclopropanesulfonamide] | < 1 | < 1 |  | 
15 | C=CCn1nc(-c2cccc(NC(C)=O)c2)c2c(c(Nc3ccc(I)cc3F)c(F)c(=O)n2C)c1=O [Example 28, N-(3-(6-allyl-3-fluoro-4-(2-fluoro-4-iodophenylamino)-1-methyl-2,5-dioxo-1,2,5,6-tetrahydropyrido[2,3-d]pyridazin-8-yl)phenyl)acetamide] | 6.4 | 1.6 |  | 
16 | C=CCn1nc(-c2cccc(NC(=O)CC)c2)c2c(c(Nc3ccc(I)cc3F)c(F)c(=O)n2C)c1=O [Example 29, N-(3-(6-allyl-3-fluoro-4-(2-fluoro-4-iodophenylamino)-1-methyl-2,5-dioxo-1,2,5,6-tetrahydropyrido[2,3-d]pyridazin-8-yl)phenyl)propionamide] | 106 | 51.2 |  | 
17 | C=CCn1nc(-c2cccc(NC(=O)C3CC3)c2)c2c(c(Nc3ccc(I)cc3F)c(F)c(=O)n2C)c1=O [Example 30, N-(3-(6-allyl-3-fluoro-4-(2-fluoro-4-iodophenylamino)-1-methyl-2,5-dioxo-1,2,5,6-tetrahydropyrido[2,3-d]pyridazin-8-yl)phenyl)cyclopropanecarboxamide] | 76.7 | 80.7 |  | 
18 | C=CCn1nc(-c2cccc(NS(=O)(=O)CC)c2)c2c(c(Nc3ccc(I)cc3F)c(F)c(=O)n2C)c1=O [Example 32, N-(3-(6-allyl-3-fluoro-4-(2-fluoro-4-iodophenylamino)-1-methyl-2,5-dioxo-1,2,5,6-tetrahydropyrido[2,3-d]pyridazin-8-yl)phenyl)ethanesulfonamide] | 12.7 | 36.2 |  | 
19 | C=CCn1nc(-c2cccc(NS(=O)(=O)C3CC3)c2)c2c(c(Nc3ccc(I)cc3F)c(F)c(=O)n2C)c1=O [Example 34, N-(3-(6-allyl-3-fluoro-4-(2-fluoro-4-iodophenylamino)-1-methyl-2,5-dioxo-1,2,5,6-tetrahydropyrido[2,3-d]pyridazin-8-yl)phenyl)cyclopropanesulfonamide] |  |  | 4.6 | 4.2
20 | C=CCn1nc(-c2cccc(NC(C)=O)c2)c2c(c(Nc3ccc(Br)cc3F)c(F)c(=O)n2C)c1=O [Example 36, N-(3-(6-allyl-4-(4-bromo-2-fluorophenylamino)-3-fluoro-1-methyl-2,5-dioxo-1,2,5,6-tetrahydropyrido[2,3-d]pyridazin-8-yl)phenyl)acetamide] | 427 | 341 |  | 
21 | C=CCn1nc(-c2cccc(NS(C)(=O)=O)c2)c2c(c(Nc3ccc(Br)cc3F)c(F)c(=O)n2C)c1=O [Example 37, N-(3-(6-allyl-4-(4-bromo-2-fluorophenylamino)-3-fluoro-1-methyl-2,5-dioxo-1,2,5,6-tetrahydropyrido[2,3-d]pyridazin-8-yl)phenyl)methanesulfonamide] | 42.7 | 32.4 |  | 
22 | CC(=O)Nc1cccc(-c2nn(CC(O)CO)c(=O)c3c(Nc4ccc(I)cc4F)c(F)c(=O)n(C)c23)c1 (centres unmarked) [Example 40, N-(3-(6-(2,3-dihydroxypropyl)-3-fluoro-4-(2-fluoro-4-iodophenylamino)-1-methyl-2,5-dioxo-1,2,5,6-tetrahydropyrido[2,3-d]pyridazin-8-yl)phenyl)acetamide] | 1.9 | 2.5 |  | 
